# Data taken from patent publication US9566265B2, “Carbazole compounds and therapeutic uses of the compounds” (Incuron, LLC, priority 2008, dated 2017).
# Read-outs that look alike come from different tables or passages of the source.
# Experiments:
# [1] = system: human HT-29 colon adenocarcinoma xenografts
# Protocol: In this study, the antitumor effect and toxicity of the three carbazoles against HCT-8 and HT29 colon cancer tumors were compared with treatment beginning when the tumor size reached 150-200 mg (about 7 days after tumor transplantation).
# Eight to twelve-week-old female athymic nude mice (nu/nu, body weight 22-25 g) were obtained from Harlan Sprague Dawley Inc. (Indianapolis, Ind.) and maintained at five mice/cage with water and food ad libitum according to an institutionally approved animal protocol.
# Human ileocecal adenocarcinoma HCT-8 and colon adenocarcinoma HT-29 xenografts were used. The xenografts were initially established by injecting s.c 10^6 cultured cells and tumors were passed several generations by transplanting about 50 mg non-necrotic tumor (2-3 pieces) via a trocar from the passage tumors when the tumors reach to 1-1.5 g.
# Treatment was initiated 7 days after tumor transplantation when the tumors reached 150-200 mg. The mice in the control group received the vehicle (0.2% hydroxypropylmethylcellulose) at 200 μl per 20 g mouse body weight (same as the treatment groups). Five mice were used for each experimental group with 10 tumors (1 tumor each in the left and right side flanks).
# Two axes (mm) of tumor (L, longest axis; W, shortest axis) were measured with the aid of a Vernier caliper. Tumor weight (mg) was estimated using a formula: tumor weight=½ (L×W2). Tumor measurements were taken daily at the same time as drug treatment and 3-4 times a week of post therapy.
# The kinetics of drug-induced toxicities (body weight loss, diarrhea, and lethality) were determined daily for the first 10 days after treatment and every two days thereafter.
# Antitumor activity was assessed by maximum tumor growth inhibition (MTRI) which is the mean tumor weight of treated group (MTWTG) compared with untreated control group (MTWCG) at the same time point (MTRI=MTWTG−MTWCG)÷MTWCG×100%). The tumor doubling time (TDT) was defined as the mean time for the tumor to reach twice its initial weight. Tumor response was expressed as partial tumor response (PR) when tumor weight was reduced at least 50% of the initial tumor size and complete tumor response (CR) was defined as the inability to detect tumor upon palpation at the initial site of tumor appearance.
# Bloodstream T. brucei = assay: T. brucei bloodstream form in vitro killing; assay type: cell-based, Trypanosoma brucei
# Protocol: Preliminary T. brucei inactivation experiments were performed in vitro. The life cycle of T. brucei involves a “procyclic” developmental stage in a tsetse fly, and a “bloodstream” form in humans. All studies were performed with the bloodstream stage of the parasite, because it is the disease-causing developmental stage.
# Suramin, a conventional anti-HAT drug, was used as a positive control.
# Bloodstream T. brucei was seeded (3×10^3 cells/mL) in 24-well (500 uL of the media per well) plate. […] Control cultures received equal volumes of DMSO.
# Bacillus subtilis = assay: antibacterial cytotoxicity assay, gram(+) bacteria (OD600); assay type: cell-based; details: B. subtilis, 48 hours, over a range of potencies; FIG. 13B
# Protocol: In vitro test to evaluate the effect of carbazole compounds on gram(-) and gram(+) bacteria. Two days prior to the start of the cytotoxicity assay, inoculate DH5-α and B. subtilis into 1 ml of corresponding media from glycerol stocks. Allow to grow during the course of the day at 37° C. with shaking. Streak each bacteria on the appropriate agar plates using a sterile inoculation loop and allow to grow overnight at 37° C. in the bacteria incubator. Using a sterile inoculation loop, pick a single colony of bacteria and inoculate 5 ml of the corresponding media in a 14 ml snap cap tube. Grow overnight ( 16 h) at 37° C. with shaking. […] Dilute 5 ml cultures of DH5-α and B. subtilis to an OD600 nm of 0.002, which corresponds to about 2×10^6 cells/ml in a volume sufficient for the experiment (dependent on the number of plates). Plate out 50 μl into each well of X 96-well plates (X=# plates needed for a given experiment). […] Chemicals for testing are prepared by dilution of stock solutions in LB Broth or Nutrient Broth for DH5-α and B. subtilis studies, respectively. Cells are treated with the final chemical concentrations presented in the scheme below (Table 2). Stock solutions are made up in DMSO. […] However, this concentration is dependent on the solubility of a given chemical and actual stock concentrations must be noted at time of experiment. Each library chemical to be tested requires 2 rows of a 96-well plate, thus 4 chemicals ([…]) can be tested in one plate simultaneously. In addition to test chemicals, each plate should include positive and negative controls. As positive control, ampicillin is used at 100 μg/ml. […] Dilutions of chemicals to be added to the plate are made up as 2× concentrations in appropriate bacteria media and added to corresponding wells in a volume of 50 μl. […] This process is repeated until all 10 2× doses are prepared. […] Following the addition of carbazole compounds to 96-well plates containing bacteria, plates are transferred to the 37° C. bacteria incubator for 48 hours. After the incubation, the OD600 mm for each well of the 96-well plates will be measured. […] The % DMSO control is plotted vs compound concentration to generate sigmoid shaped curves. After three runs are complete, the raw data for all three runs is used for IC50 calculations.
# A. terreus = assay: in vitro susceptibility CLSI M38A2, MIC; details: Aspergillus terreus
# Source text: Eight Aspergillus spp. strains were used throughout the study. Six A. fumigatus, one A. flavus and one A. terreus also were used. The A. fumigatus group included two itraconazole-resistant strains (RIT13 and RIT5 strains) (1), one triazole cross-resistant strain (MUT10) (2, 3), one echinocandin cross-resistant strain (EMFRS678P) (4), and 2 wild type susceptible isolates (R21 and ATCC13073).
smiles,measurement,setting,value
CCN(CC)CCn1c2ccc3c(c2c2c4c(ccc21)C(=O)CC4)CCC3=O [Example 15],delay of tumor growth (control double time 7.8 days),[1],76%
same,inhibitory rate / tumor growth inhibition,[1],58%
same,Antitumor Activity MTGI (%),"[1]; p.o. at MTD, 5 days on/2 days off per week, Example 15 5, Example 7 30, Example 13 25 mg/kg/d",58.4 ± 6.4%
same,Toxicity (%) lethality,[1]; same,40%
same,CR (%),"[1]; same, complete tumor response",0%
same,Toxicity (%) MWL,"[1]; same, maximum weight loss of pretreatment body weight",17.9 ± 6.8%
same,PR (%),"[1]; same, partial tumor response",0%
same,Antitumor Activity TDT,"[1]; same, tumor doubling time",13.1 ± 2.3 days
same,elimination of parasites,"Bloodstream T. brucei; 48 hrs, up to 200 nM Example 7, 20 nM Example 13, 3 nM Example 15",completely eliminated T. brucei
same,IC50,"Bloodstream T. brucei; Trypanosoma brucei, read-out: IC50 (concentration that killed 50% of the parasites), bloodstream stage, 48 hrs of culture",~0.5 nM
same,antibacterial effect,Bacillus subtilis,antibacterial effect
same,MIC,A. terreus; read-out: MIC* (24 hs),0.08 µM
same,MIC,A. terreus; read-out: MIC* (48 hs),1.28 µM
